How the values were obtained:
Format in all cases: in vivo
[1] = test system: duck salad (Heteranthera limosa); experiment: Test B flooded paddy test; conditions: Flood, 1000 g ai/ha; scale 0 to 100
In short: (§1)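 Plants were grown to the 2-leaf stage before treatment, then kept in a greenhouse for 13 to 15 days. Injury was rated visually against untreated controls on a 0 to 100 scale, where 0 is no effect and 100 is complete control.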

[2] = test system: barnyardgrass (Echinochloa crus-galli); experiment: Test B flooded paddy test; conditions: Flood, 1000 g ai/ha; scale 0 (no effect) to 100 (complete control)
In short: as §1

[3] = test system: rice (Oryza sativa); experiment: Test B flooded paddy test; conditions: Flood, 1000 g ai/ha; scale 0 to 100
In short: as §1

[4] = test system: umbrella sedge (Cyperus difformis); experiment: Test B flooded paddy test; conditions: Flood, 1000 g ai/ha; scale 0 to 100
In short: as §1

[5] = test system: velvetleaf (Abutilon theophrasti); experiment: Test B pre/postemergence
From the text: (§2) Seeds selected from barnyardgrass (Echinochloa crus-galli), Surinam grass (Brachiaria decumbens), cocklebur (Xanthium strumarium), corn (Zea mays), crabgrass (Digitaria sanguinalis), giant foxtail (Setaria faberii), lambsquarters (Chenopodium album), morningglory (Ipomoea coccinea), pigweed (Amaranthus retroflexus), velvetleaf (Abutilon theophrasti), and wheat (Triticum aestivum) were planted and treated preemergence with test chemicals formulated in a non-phytotoxic solvent mixture which included a surfactant.
(§3) At the same time, plants selected from these crop and weed species and also blackgrass (Alopecurus myosuroides) and wild oat (Avena fatua) were treated with postemergence applications of test chemicals formulated in the same manner. Plants ranged in height from 2 to 18 cm (1- to 4-leaf stage) for postemergence treatments. Plant species in the flooded paddy test consisted of rice (Oryza sativa), umbrella sedge (Cyperus difformis), duck salad (Heteranthera limosa) and barnyardgrass (Echinochloa crus-galli) grown to the 2-leaf stage for testing. Treated plants and controls were maintained in a greenhouse for 13 to 15 days, after which time all species were compared to controls and visually evaluated. Plant response ratings, summarized in Table B, are based on a scale of 0 to 100 where 0 is no effect and 100 is complete control. A dash (-) response means no test result.

[6] = test system: barnyardgrass (Echinochloa crus-galli); experiment: Test B pre/postemergence
From the text: as §2, §3

[7] = test system: giant foxtail (Setaria faberii); experiment: Test B pre/postemergence
From the text: as §2, §3

[8] = test system: pigweed (Amaranthus retroflexus); experiment: Test B pre/postemergence
From the text: as §2, §3

[9] = test system: wheat (Triticum aestivum); experiment: Test B pre/postemergence
From the text: as §2, §3

[10] = test system: crabgrass (Digitaria sanguinalis); experiment: Test B pre/postemergence
From the text: as §2, §3

[11] = test system: lambsquarters (Chenopodium album); experiment: Test B pre/postemergence
From the text: as §2, §3

[12] = test system: corn (Zea mays); experiment: Test B pre/postemergence
From the text: as §2, §3

[13] = test system: cocklebur (Xanthium strumarium); experiment: Test B pre/postemergence
From the text: as §2, §3

[14] = test system: Surinam grass (Brachiaria decumbens); experiment: Test B pre/postemergence
From the text: as §2, §3

[15] = test system: morningglory (Ipomoea coccinea); experiment: Test B pre/postemergence
From the text: as §2, §3

[16] = test system: blackgrass (Alopecurus myosuroides); experiment: Test B postemergence; conditions: for Blackgrass plant response rating: scale 0 to 100 (0 no effect, 100 complete control); for Plant response rating, Blackgrass: scale 0 to 100
In short: (§4)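 Greenhouse whole-plant test; surfactant-containing non-phytotoxic solvent formulation; pre- and postemergence applications made simultaneously; post plants 2–18 cm, 1- to 4-leaf; visual scoring at 13–15 days on 0–100 scale relative to controls.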

[17] = test system: wild oat (Avena fatua); experiment: Test B postemergence; conditions: for Oat, Wild plant response rating: scale 0 to 100 (0 no effect, 100 complete control); for Plant response rating, Oat, Wild: scale 0 to 100
In short: as §4

[18] = Postemergence, 125 g ai/ha, scale 0 to 100 (0 no effect, 100 complete control)
[19] = Postemergence, 500 g ai/ha, scale 0 to 100
[20] = Preemergence, 125 g ai/ha, scale 0 to 100 (0 no effect, 100 complete control)
[21] = Preemergence, 500 g ai/ha, scale 0 to 100 (0 no effect, 100 complete control)
[22] = Postemergence, 62 g ai/ha, scale 0 to 100 (0 no effect, 100 complete control)
[23] = Postemergence, 250 g ai/ha, scale 0 to 100
[24] = Preemergence, 62 g ai/ha, scale 0 to 100, 0 no effect, 100 complete control
[25] = Preemergence, 250 g ai/ha, scale 0 to 100 (0 no effect, 100 complete control)

For CC=NNc1nc(C2CC2)nc(C(=O)OC)c1Br [Compound 124], the “Plant response rating, Ducksalad” value [1] was 0, the “Plant response rating, Barnyardgrass” value [2] was 0 and the “Plant response rating, Rice” value [3] was 0. The “Plant response rating, Sedge, Umbrella” value [4] was 0, the “Velvetleaf plant response rating” value [5, 18] was 20 and the “Plant response rating, Velvetleaf” value [5, 19] was 50. The “Plant response rating, Velvetleaf” value [5, 20] was 20, the “Plant response rating, Velvetleaf” value [5, 21] was 50 and the “Barnyardgrass plant response rating” value [6, 18] was 0. The “Plant response rating, Barnyardgrass” value [6, 19] was 40, the “Plant response rating, Barnyardgrass” value [6, 20] was 0 and the “Plant response rating, Barnyardgrass” value [6, 21] was 0. The “Foxtail, Giant plant response rating” value [7, 18] was 10, the “Plant response rating, Foxtail, Giant” value [7, 19] was 20 and the “Plant response rating, Foxtail, Giant” value [7, 20] was 0. The “Plant response rating, Foxtail, Giant” value [7, 21] was 0, the “Pigweed plant response rating” value [8, 18] was 50 and the “Plant response rating, Pigweed” value [8, 19] was 90. For the same molecule, the “Plant response rating, Pigweed” value [8, 20] was 20, the “Plant response rating, Pigweed” value [8, 21] was 70 and the “Wheat plant response rating” value [9, 18] was 0. The “Plant response rating, Wheat” value [9, 19] was 30, the “Plant response rating, Wheat” value [9, 20] was 0 and the “Plant response rating, Wheat” value [9, 21] was 0. The “Crabgrass plant response rating” value [10, 18] was 10, the “Plant response rating, Crabgrass” value [10, 19] was 40 and the “Plant response rating, Crabgrass” value [10, 20] was 0. For the same molecule, the “Plant response rating, Crabgrass” value [10, 21] was 0, the “Lambsquarters plant response rating” value [11, 18] was 40 and the “Plant response rating, Lambsquarters” value [11, 19] was 90. The “Plant response rating, Lambsquarters” value [11, 20] was 0, the “Plant response rating, Lambsquarters” value [11, 21] was 70 and the “Corn plant response rating” value [12, 18] was 0. For the same molecule, the “Plant response rating, Corn” value [12, 19] was 0, the “Plant response rating, Corn” value [12, 20] was 0 and the “Plant response rating, Corn” value [12, 21] was 0. For the same molecule, the “Cocklebur plant response rating” value [13, 18] was 30, the “Plant response rating, Cocklebur” value [13, 19] was 80 and the “Plant response rating, Cocklebur” value [13, 20] was 10. The “Plant response rating, Cocklebur” value [13, 21] was 60, the “Surinam Grass plant response rating” value [14, 18] was 0 and the “Plant response rating, Surinam Grass” value [14, 19] was 0. For the same molecule, the “Plant response rating, Surinam Grass” value [14, 20] was 0, the “Plant response rating, Surinam Grass” value [14, 21] was 0 and the “Morningglory plant response rating” value [15, 18] was 50. For the same molecule, the “Plant response rating, Morningglory” value [15, 19] was 100, the “Plant response rating, Morningglory” value [15, 20] was 10 and the “Plant response rating, Morningglory” value [15, 21] was 60. For the same molecule, the “Blackgrass plant response rating” value ([16]; 125 g ai/ha) was 0, the “Plant response rating, Blackgrass” value ([16]; 500 g ai/ha) was 40 and the “Oat, Wild plant response rating” value ([17]; 125 g ai/ha) was 0. For the same molecule, the “Plant response rating, Oat, Wild” value ([17]; 500 g ai/ha) was 30.

With CCOC(OCC)c1nc(C2CC2)nc(N)c1Br [Compound 45] the “Plant response rating, Ducksalad” value [1] was 0, the “Plant response rating, Barnyardgrass” value [2] was 0 and the “Plant response rating, Rice” value [3] was 0. For the same molecule, the “Plant response rating, Sedge, Umbrella” value [4] was 0, the “Velvetleaf plant response rating” value [5, 22] was 0 and the “Plant response rating, Velvetleaf” value [5, 23] was 20. The “Plant response rating, Velvetleaf” value [5, 24] was 0, the “Plant response rating, Velvetleaf” value [5, 25] was 0 and the “Barnyardgrass plant response rating” value [6, 22] was 0. For the same molecule, the “Plant response rating, Barnyardgrass” value [6, 23] was 0, the “Plant response rating, Barnyardgrass” value [6, 24] was 0 and the “Plant response rating, Barnyardgrass” value [6, 25] was 0. For the same molecule, the “Foxtail, Giant plant response rating” value [7, 22] was 0, the “Plant response rating, Foxtail, Giant” value [7, 23] was 0 and the “Plant response rating, Foxtail, Giant” value [7, 24] was 0. The “Plant response rating, Foxtail, Giant” value [7, 25] was 0, the “Pigweed plant response rating” value [8, 22] was 30 and the “Plant response rating, Pigweed” value [8, 23] was 50. For the same molecule, the “Plant response rating, Pigweed” value [8, 24] was 0, the “Plant response rating, Pigweed” value [8, 25] was 50 and the “Wheat plant response rating” value [9, 22] was 0. The “Plant response rating, Wheat” value [9, 23] was 0, the “Plant response rating, Wheat” value [9, 24] was 0 and the “Plant response rating, Wheat” value [9, 25] was 0. For the same molecule, the “Crabgrass plant response rating” value [10, 22] was 0, the “Plant response rating, Crabgrass” value [10, 23] was 20 and the “Plant response rating, Crabgrass” value [10, 24] was 0. For the same molecule, the “Plant response rating, Crabgrass” value [10, 25] was 0, the “Lambsquarters plant response rating” value [11, 22] was 10 and the “Plant response rating, Lambsquarters” value [11, 23] was 30. For the same molecule, the “Plant response rating, Lambsquarters” value [11, 24] was 0, the “Plant response rating, Lambsquarters” value [11, 25] was 30 and the “Corn plant response rating” value [12, 22] was 0. The “Plant response rating, Corn” value [12, 23] was 0, the “Plant response rating, Corn” value [12, 24] was 0 and the “Cocklebur plant response rating” value [13, 22] was 0. The “Plant response rating, Cocklebur” value [13, 23] was 10, the “Plant response rating, Cocklebur” value [13, 25] was 0 and the “Surinam Grass plant response rating” value [14, 22] was 0. For the same molecule, the “Plant response rating, Surinam Grass” value [14, 23] was 0, the “Plant response rating, Surinam Grass” value [14, 24] was 0 and the “Plant response rating, Surinam Grass” value [14, 25] was 0. The “Morningglory plant response rating” value [15, 22] was 40, the “Plant response rating, Morningglory” value [15, 23] was 60 and the “Plant response rating, Morningglory” value [15, 24] was 30. For the same molecule, the “Plant response rating, Morningglory” value [15, 25] was 50, the “Blackgrass plant response rating” value ([16]; 62 g ai/ha) was 0 and the “Plant response rating, Blackgrass” value ([16]; 250 g ai/ha) was 0. The “Oat, Wild plant response rating” value ([17]; 62 g ai/ha) was 0 and the “Plant response rating, Oat, Wild” value ([17]; 250 g ai/ha) was 0.
